Each structure is given as a SMILES string.

In patent publication US10064873B2, “Compounds and compositions for treating HIV with derivatives of Betulin” (GlaxoSmithKline LLC, priority 2011, dated 2018) one finds EC50 data, which are given here for 14 compounds.

The test relates to HIV NL4-3 wt. The test can be described thus: MT4 antiviral assay, NL4-3 strain wild type. It is filed as cell-based, HIV-1. The conditions noted are these: Human immunodeficiency virus 1, NL43; MT4 cells; read-out: EC50 NL4-3 wt.
A word on the EC50: it is the concentration giving half of the maximal effect. Take `CC(C)C1=C2[C@H]3CC[C@@H]4[C@@]5(C)CC[C@H](OC(=O)CC(C)(C)C(=O)O)C(C)(C)[C@@H]5CC[C@@]4(C)[C@]3(C)CC[C@@]2([C@H](O)CNCc2ccc(Cl)cc2)CC1=O` [Example 15, 4-(((3aR,5aR,5bR,7aR,9S,11aR,11bR,13aS)-3a-((S)-2-((4-Chlorobenzyl)amino)-1-hydroxyethyl)-1-isopropyl-5a,5b,8,8,11a-pentamethyl-2-oxo-3,3a,4,5,5a,5b,6,7,7a,8,9,10,11,11a,11b,12,13,13a-octadecahydro-2H-cyclopenta[a]chrysen-9-yl)oxy)-2,2-dimethyl-4-oxobutanoic acid]: the EC50 came out at 6.9 nM.

For the compound `CC(=O)O[C@@H](CNCc1ccc(Cl)cc1)[C@@]12CC[C@]3(C)[C@H](CC[C@@H]4[C@@]5(C)CC[C@H](OC(=O)CC(C)(C)C(=O)O)C(C)(C)[C@@H]5CC[C@]43C)C1=C(C(C)C)C(=O)C2` [Example 16, 4-(((3aR,5aR,5bR,7aR,9S,11aR,11bR,13aS)-3a-((R)-1-Acetoxy-2-((4-chlorobenzyl)amino)ethyl)-1-isopropyl-5a,5b,8,8,11a-pentamethyl-2-oxo-3,3a,4,5,5a,5b,6,7,7a,8,9,10,11,11a,11b,12,13,13a-octadecahydro-2H-cyclopenta[a]chrysen-9-yl)oxy)-2,2-dimethyl-4-oxobutanoic acid], the EC50 is 11 nM.

Regarding `CC(=O)O[C@H](CNCc1ccc(Cl)cc1)[C@@]12CC[C@]3(C)[C@H](CC[C@@H]4[C@@]5(C)CC[C@H](OC(=O)CC(C)(C)C(=O)O)C(C)(C)[C@@H]5CC[C@]43C)C1=C(C(C)C)C(=O)C2` [Example 17, 4-(((3aR,5aR,5bR,7aR,9S,11aR,11bR,13aS)-3a-((S)-1-Acetoxy-2-((4-chlorobenzyl)amino)ethyl)-1-isopropyl-5a,5b,8,8,11a-pentamethyl-2-oxo-3,3a,4,5,5a,5b,6,7,7a,8,9,10,11,11a,11b,12,13,13a-octadecahydro-2H-cyclopenta[a]chrysen-9-yl)oxy)-2,2-dimethyl-4-oxobutanoic acid], the EC50 amounted to 8.7 nM.

For `CC(=O)O[C@H](CN(CCN(C)C)Cc1ccc(Cl)cc1)[C@@]12CC[C@]3(C)[C@H](CC[C@@H]4[C@@]5(C)CC[C@H](OC(=O)CC(C)(C)C(=O)O)C(C)(C)[C@@H]5CC[C@]43C)C1=C(C(C)C)C(=O)C2` [Example 20, 4-(((3aR,5aR,5bR,7aR,9S,11aR,11bR,13aS)-3a-((S)-1-Acetoxy-2-((4-chlorobenzyl)(2-(dimethylamino)ethyl)amino)ethyl)-1-isopropyl-5a,5b,8,8,11a-pentamethyl-2-oxo-3,3a,4,5,5a,5b,6,7,7a,8,9,10,11,11a,11b,12,13,13a-octadecahydro-2H-cyclopenta[a]chrysen-9-yl)oxy)-2,2-dimethyl-4-oxobutanoic acid], the EC50 is 2.3 nM.

Turning to `CC(=O)O[C@@H](CN(CCN(C)C)Cc1ccc(Cl)cc1)[C@@]12CC[C@]3(C)[C@H](CC[C@@H]4[C@@]5(C)CC[C@H](OC(=O)CC(C)(C)C(=O)O)C(C)(C)[C@@H]5CC[C@]43C)C1=C(C(C)C)C(=O)C2` [Example 21, 4-(((3aR,5aR,5bR,7aR,9S,11aR,11bR,13aS)-3a-((R)-1-Acetoxy-2-((4-chlorobenzyl)(2-(dimethylamino)ethyl)amino)ethyl)-1-isopropyl-5a,5b,8,8,11a-pentamethyl-2-oxo-3,3a,4,5,5a,5b,6,7,7a,8,9,10,11,11a,11b,12,13,13a-octadecahydro-2H-cyclopenta[a]chrysen-9-yl)oxy)-2,2-dimethyl-4-oxobutanoic acid], the EC50 amounted to 76.5 nM.

For `CC(C)C1=C2[C@H]3CC[C@@H]4[C@@]5(C)CC[C@H](OC(=O)CC(C)(C)CC(=O)O)C(C)(C)[C@@H]5CC[C@@]4(C)[C@]3(C)CC[C@@]2([C@@H](O)CN(CCN(C)C)Cc2ccc(Cl)cc2)CC1=O` [Example 22, 5-(((3aR,5aR,5bR,7aR,9S,11aR,11bR,13aS)-3a-((R)-2-((4-Chlorobenzyl)(2-(dimethylamino)ethyl)amino)-1-hydroxyethyl)-1-isopropyl-5a,5b,8,8,11a-pentamethyl-2-oxo-3,3a,4,5,5a,5b,6,7,7a,8,9,10,11,11a,11b,12,13,13a-octadecahydro-2H-cyclopenta[a]chrysen-9-yl)oxy)-3,3-dimethyl-5-oxopentanoic acid], the EC50 is 3.3 nM.

With `CC(C)C1=C2[C@H]3CC[C@@H]4[C@@]5(C)CC[C@H](OC(=O)CC(C)(C)CC(=O)O)C(C)(C)[C@@H]5CC[C@@]4(C)[C@]3(C)CC[C@@]2([C@H](O)CN(CCN(C)C)Cc2ccc(Cl)cc2)CC1=O` [Example 23, 5-(((3aR,5aR,5bR,7aR,9S,11aR,11bR,13aS)-3a-((S)-2-((4-Chlorobenzyl)(2-(dimethylamino)ethyl)amino)-1-hydroxyethyl)-1-isopropyl-5a,5b,8,8,11a-pentamethyl-2-oxo-3,3a,4,5,5a,5b,6,7,7a,8,9,10,11,11a,11b,12,13,13a-octadecahydro-2H-cyclopenta[a]chrysen-9-yl)oxy)-3,3-dimethyl-5-oxopentanoic acid], the EC50 was determined as 4.9 nM.

For the compound `CC(C)C1=C2[C@H]3CC[C@@H]4[C@@]5(C)CC[C@H](OC(=O)CC(C)(C)C(=O)O)C(C)(C)[C@@H]5CC[C@@]4(C)[C@]3(C)CC[C@@]2([C@H](O)CNCc2ccccc2Cl)CC1=O` [Example 24, 4-(((3aR,5aR,5bR,7aR,9S,11aR,11bR,13aS)-3a-((S)-2-((2-Chlorobenzyl)amino)-1-hydroxyethyl)-1-isopropyl-5a,5b,8,8,11a-pentamethyl-2-oxo-3,3a,4,5,5a,5b,6,7,7a,8,9,10,11,11a,11b,12,13,13a-octadecahydro-2H-cyclopenta[a]chrysen-9-yl)oxy)-2,2-dimethyl-4-oxobutanoic acid], the EC50 stood at 40.4 nM.

`CC(C)C1=C2[C@H]3CC[C@@H]4[C@@]5(C)CC[C@H](OC(=O)CC(C)(C)C(=O)O)C(C)(C)[C@@H]5CC[C@@]4(C)[C@]3(C)CC[C@@]2([C@@H](O)CNCc2ccccc2Cl)CC1=O` [Example 25, 4-(((3aR,5aR,5bR,7aR,9S,11aR,11bR,13aS)-3a-((R)-2-((2-chlorobenzyl)amino)-1-hydroxyethyl)-1-isopropyl-5a,5b,8,8,11a-pentamethyl-2-oxo-3,3a,4,5,5a,5b,6,7,7a,8,9,10,11,11a,11b,12,13,13a-octadecahydro-2H-cyclopenta[a]chrysen-9-yl)oxy)-2,2-dimethyl-4-oxobutanoic acid]: the EC50 amounted to 14.7 nM.

Consider `CC(=O)O[C@H](CNCc1ccc(F)cc1)[C@@]12CC[C@]3(C)[C@H](CC[C@@H]4[C@@]5(C)CC[C@H](OC(=O)CC(C)(C)C(=O)O)C(C)(C)[C@@H]5CC[C@]43C)C1=C(C(C)C)C(=O)C2` [Example 26, 4-(((3aR,5aR,5bR,7aR,9S,11aR,11bR,13aS)-3a-((S)-1-Acetoxy-2-((4-fluorobenzyl)amino)ethyl)-1-isopropyl-5a,5b,8,8,11a-pentamethyl-2-oxo-3,3a,4,5,5a,5b,6,7,7a,8,9,10,11,11a,11b,12,13,13a-octadecahydro-2H-cyclopenta[a]chrysen-9-yl)oxy)-2,2-dimethyl-4-oxobutanoic acid], for which the EC50 turned out to be 4.9 nM.

With `CC(=O)O[C@@H](CNCc1ccc(F)cc1)[C@@]12CC[C@]3(C)[C@H](CC[C@@H]4[C@@]5(C)CC[C@H](OC(=O)CC(C)(C)C(=O)O)C(C)(C)[C@@H]5CC[C@]43C)C1=C(C(C)C)C(=O)C2` [Example 27, 4-(((3aR,5aR,5bR,7aR,9S,11aR,11bR,13aS)-3a-((R)-1-acetoxy-2-((4-fluorobenzyl)amino)ethyl)-1-isopropyl-5a,5b,8,8,11a-pentamethyl-2-oxo-3,3a,4,5,5a,5b,6,7,7a,8,9,10,11,11a,11b,12,13,13a-octadecahydro-2H-cyclopenta[a]chrysen-9-yl)oxy)-2,2-dimethyl-4-oxobutanoic acid], the EC50 amounted to 8.2 nM.

For `CC(C)C1=C2[C@H]3CC[C@@H]4[C@@]5(C)CC[C@H](OC(=O)CC(C)(C)C(=O)O)C(C)(C)[C@@H]5CC[C@@]4(C)[C@]3(C)CC[C@@]2([C@H](O)CN(C)Cc2ccc(Cl)cc2)CC1=O` [Example 29, 4-(((3aR,5aR,5bR,7aR,9S,11aR,11bR,13aS)-3a-((S)-2-((4-Chlorobenzyl)(methyl)amino)-1-hydroxyethyl)-1-isopropyl-5a,5b,8,8,11a-pentamethyl-2-oxo-3,3a,4,5,5a,5b,6,7,7a,8,9,10,11,11a,11b,12,13,13a-octadecahydro-2H-cyclopenta[a]chrysen-9-yl)oxy)-2,2-dimethyl-4-oxobutanoic acid], the EC50 was determined as 17.5 nM.

`CC(C)C1=C2[C@H]3CC[C@@H]4[C@@]5(C)CC[C@H](OC(=O)CC(C)(C)C(=O)O)C(C)(C)[C@@H]5CC[C@@]4(C)[C@]3(C)CC[C@@]2([C@@H](O)CN(C)Cc2ccc(Cl)cc2)CC1=O` [Example 31, 4-(((3aR,5aR,5bR,7aR,9S,11aR,11bR,13aS)-3a-((R)-2-((4-Chlorobenzyl)(methyl)amino)-1-hydroxyethyl)-1-isopropyl-5a,5b,8,8,11a-pentamethyl-2-oxo-3,3a,4,5,5a,5b,6,7,7a,8,9,10,11,11a,11b,12,13,13a-octadecahydro-2H-cyclopenta[a]chrysen-9-yl)oxy)-2,2-dimethyl-4-oxobutanoic acid]: the EC50 turned out to be 5.4 nM.

With `CC(=O)N(Cc1ccc(Cl)cc1)C[C@@H](O)[C@@]12CC[C@]3(C)[C@H](CC[C@@H]4[C@@]5(C)CC[C@H](OC(=O)CC(C)(C)C(=O)O)C(C)(C)[C@@H]5CC[C@]43C)C1=C(C(C)C)C(=O)C2` [Example 33, 4-(((3aR,5aR,5bR,7aR,9S,11aR,11bR,13aS)-3a-((S)-2-(N-(4-Chlorobenzyl)acetamido)-1-hydroxyethyl)-1-isopropyl-5a,5b,8,8,11a-pentamethyl-2-oxo-3,3a,4,5,5a,5b,6,7,7a,8,9,10,11,11a,11b,12,13,13a-octadecahydro-2H-cyclopenta[a]chrysen-9-yl)oxy)-2,2-dimethyl-4-oxobutanoic acid], the EC50 turned out to be 5.3 nM.
